Laboratory results as given in PubChem BioAssay (NCI).
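All cell lines were grown in 96-well plates and treated with compound for 48 hours. GI50 = concentration required for 50% inhibition of growth. TGI denotes the concentration required for complete inhibition of growth.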

Tests used:
Assay in all cases: NCI anticancer screen, dose series, 48 h
[1] = system: HCT-116 colon
[2] = system: HT29 colon
[3] = system: SK-MEL-5 melanoma
[4] = system: LOX IMVI melanoma
[5] = system: SF-539 CNS
[6] = system: 786-0 renal
[7] = system: SW-620 colon
[8] = system: HL-60(TB) leukemia
[9] = system: RPMI-8226 leukemia
[10] = system: NCI-H226 lung

Structure (SMILES)	TGI [1]	TGI [2]	TGI [3]	TGI [4]	TGI [5]	TGI [6]	TGI [7]	TGI [8]	TGI [9]	TGI [10]	GI50 [1]	GI50 [2]	GI50 [3]	GI50 [4]	GI50 [5]	GI50 [6]	GI50 [7]	GI50 [8]	GI50 [9]	GI50 [10]
O=C(O)C(Cc1ccccc1)N=Cc1nc(-c2ccccc2)oc1O (centres undefined)	> 100 µM	> 100 µM	> 100 µM	> 100 µM	> 100 µM	> 100 µM	> 100 µM	> 100 µM	> 100 µM	> 100 µM										
Clc1ccc(-c2nnc(-c3nn(-c4ccccc4)c4nc5ccccc5nc34)o2)cc1	> 100 µM	> 100 µM	32.3 µM	> 100 µM	> 100 µM	> 100 µM	> 100 µM	80.5 µM	> 100 µM	> 100 µM										
COc1ccc2c(c1)C(=O)/C(=C/c1ccc(O)cc1)O2	18.2 µM	14.8 µM	30.5 µM	14 µM	56.8 µM	41.4 µM	8.99 µM	2.95 µM	3.49 µM	79 µM	4420 nM	4140 nM	15400 nM	3290 nM	21600 nM	17900 nM	3340 nM	1350 nM	1550 nM	25.7 µM
CC(C)(C)OC(=O)NC(Cc1ccccc1)C(=S)N1CCCC1 (centres undefined)	> 100 µM	> 100 µM	> 100 µM	> 100 µM	> 100 µM	> 100 µM	> 100 µM	> 100 µM	98 µM	> 100 µM										
Cc1ccc(NC(=O)CCc2nnc3s/c(=C\C=C\c4ccccc4)c(=O)n23)cc1	> 100 µM	> 100 µM	> 100 µM	> 86.8 µM	> 100 µM	> 100 µM	> 100 µM	> 79.7 µM	> 82.1 µM	> 100 µM										
CC1(C)N=C(N)N=C(N)N1c1cccc(CCCCc2ccc(Cl)c(S(=O)(=O)F)c2)c1	13.5 µM	16.3 µM	12.9 µM	16.1 µM	13 µM	16.3 µM	15.8 µM	12.1 µM	25.1 µM	28.5 µM	457 nM	441 nM	612 nM	433 nM	504 nM	2670 nM	455 nM	563 nM	4970 nM	8.38 µM
C/C(=N\NC(=O)c1ccccc1O)c1c(O)cc(C)oc1=O	> 100 µM	> 100 µM	> 100 µM	> 100 µM	> 100 µM	> 100 µM	> 100 µM	> 100 µM	> 100 µM	> 100 µM										
C=CCC1(CN(C)C)CC/C(=C\c2cc(OC)c(OC)c(OC)c2)C1=O (centres undefined)	31.3 µM	40.6 µM	35.3 µM	43 µM	35 µM	39.3 µM	33.6 µM	20.6 µM	59.6 µM	> 100 µM										
OCC#Cc1ccccc1C#Cc1ccc(C#Cc2ccccc2C#CCO)cc1	66.7 µM	> 100 µM	59.3 µM	> 100 µM	91.5 µM	82.6 µM	> 100 µM	> 100 µM	89.3 µM	> 100 µM	25800 nM	45400 nM	23700 nM	48100 nM	34900 nM	32000 nM	38100 nM	90500 nM	26400 nM	56.8 µM
CCCC(=O)Oc1ccc(/C=N/NC(N)=S)nc1	> 100 µM	> 100 µM	> 100 µM	> 100 µM	> 100 µM	> 100 µM	> 100 µM	> 100 µM	> 100 µM	> 100 µM										
COc1cc(/C=C2\C[C@H]3[C@@H]4CC=C5C[C@@H](O)CC[C@]5(C)[C@H]4CC[C@]3(C)[C@H]2O)ccc1OCCN1CCCCC1	0.494 µM	> 50 µM	1.19 µM	1.34 µM	2.1 µM	1.18 µM		3.18 µM	1.98 µM	5.62 µM	254 nM	1540 nM	576 nM	589 nM	1100 nM	470 nM	760 nM	1330 nM	776 nM	2.53 µM
C/C(=N\N)C(CN1CCOCC1)C(c1ccccc1)c1c(O)c2ccccc2oc1=O (centres undefined)	> 100 µM	> 100 µM	> 100 µM	> 31.6 µM	> 100 µM	> 100 µM	> 100 µM	> 100 µM	> 100 µM	> 100 µM										
COc1nc(NC2OC(COC(C)=O)C(OC(C)=O)C(OC(C)=O)C2OC(C)=O)c(N=C(C)C(C)=O)c(=O)n1C (centres undefined)	> 100 µM	> 100 µM	> 100 µM	> 100 µM	> 100 µM	> 100 µM	> 100 µM	> 100 µM	> 100 µM	> 100 µM										
CC1(C)CC[C@]2(C(=O)NCCNCCN)CC[C@]3(C)C(=CC[C@@H]4[C@@]5(C)CCC(=O)C(C)(C)[C@@H]5CC[C@]43C)[C@@H]2C1	3.21 µM	4.43 µM	3.22 µM	3.26 µM	3.11 µM	3.09 µM	3.56 µM	4.71 µM	6.26 µM	36.1 µM	1750 nM	1960 nM	1800 nM	1810 nM	1720 nM	1710 nM	1800 nM	2070 nM	2440 nM	11 µM
CCCCNC(=O)Oc1ccc(/C(=C(\C)c2ccc(OC)cc2)c2ccc(OCCN3CCCCC3)cc2)cc1	2.38 µM	6.77 µM	3.08 µM	3.44 µM	3.12 µM	2.83 µM	6.15 µM	3.58 µM	5.13 µM	27.9 µM	1150 nM	873 nM	1680 nM	1830 nM	1640 nM	1470 nM	2450 nM	1530 nM	2140 nM	7.77 µM
C#Cc1cccc(Nc2nc(C)nc3cc(NC(=O)CCl)ccc23)c1	2.66 µM	4.15 µM	7.04 µM	0.95 µM	6.6 µM	1.03 µM	1.93 µM	7.67 µM	4.75 µM	8.25 µM	654 nM	1060 nM	3560 nM	424 nM	3340 nM	461 nM	659 nM	2630 nM	1120 nM	3.06 µM
